According to patent EP4775208A1, “USE OF PRMT5 INHIBITOR IN TREATMENT OF TUMORS OR CANCERS” (Apeiron Therapeutics (Hong Kong) Ltd., priority 2023, dated 2025):

Columns and labels:
[1] = tested on: HCT-116 MTAP wild-type cells; assay: Inhibition of proliferation of HCT-116 MTAP wild-type cells (Cell-Titer Glo); format: cell-based; settings: Homo sapiens, HCT-116, 192 h, 8 days
Procedure: Test 2: Compound's inhibitory activity on proliferation of HCT-116 MTAP wild-type cells.
Materials and Cells: HCT-116 MTAP wild-type cells obtained from Kyinno Bio (China); RPMI-1640 medium, fetal bovine serum, and penicillin-streptomycin purchased from Thermo Fisher Scientific (America); 384-well plates from PerkinElmer (America); Cell-Titer Glo assay kit from Promega (America).
Cell Culture: HCT116 MTAP wild-type cells were cultured in RPMI 1640 medium containing 10% fetal bovine serum and 1% penicillin-streptomycin at 37°C, 5% CO2. Only cells in logarithmic growth phase were used for experiments.
(§1) Cell Proliferation Inhibition Assay: The compound's inhibitory activity on HCT-116 MTAP wild-type cells was assessed using the Cell-Titer Glo assay kit. Adjusting cell concentration, 40 µL was seeded into a 384-well plate and cultured overnight at 37°C, 5% CO2. Each well received 40 nL of the compound, achieving concentrations from 0 to 10,000 nM (starting concentration 10,000 nM, 3-fold dilution, 10 points), with 0.1% DMSO. The cell plate was incubated for 8 days at 37°C, 5% CO2. Cell-Titer Glo reagent (40 µL) was added to measure cell viability.

[2] = tested on: HCT-116 MTAP(-/-) deficient cells; assay: Inhibition of proliferation of HCT-116 MTAP(-/-) deficient cells (Cell-Titer Glo); format: cell-based; settings: Homo sapiens, HCT-116, 192 h, 8 days
Procedure: Test 1: Compound's inhibitory activity on proliferation of HCT-116 MTAP(-/-) deficient cells.
Materials and Cells: HCT-116 MTAP(-/-) deficient cells obtained from Kyinno Bio (China); RPMI-1640 medium, fetal bovine serum, and penicillin-streptomycin purchased from Thermo Fisher Scientific (America); 384-well plates from PerkinElmer (America); Cell-Titer Glo assay kit from Promega (America).
Cell Culture: HCT116 MTAP(-/-) deficient cells were cultured in RPMI 1640 medium containing 10% fetal bovine serum and 1% penicillin-streptomycin at 37°C, 5% CO2. Only cells in logarithmic growth phase were used for experiments.
as §1, with “MTAP(-/-) deficient” for “MTAP wild-type”

SMILES	IC50 [1] [nM]	IC50 [2] [nM]
Cc1ncc(-c2ccc3c(c2)C(C)OC[C@H]3N(C)C(=O)c2ccc3nc(N)c4cncn4c3c2)cn1 (stereo partly drawn) [Example 21, 4-amino-N-methyl-N-((4S)-1-methyl-7-(2-methylpyrimidin-5-yl)isochroman-4-yl)imid azo[1,5-a]quinoxaline-8-carboxamide]	2130	14.8
CN(C(=O)c1ccc2nc(N)c3cncn3c2c1)[C@@H]1CCc2cc(C(F)(F)F)ncc21 [Example 23, (R)-4-amino-N-methy 1-N-(3-(trifluoromethy 1)-6,7-dihydro-5H-cyclopenta[c]pyridin-7-yl)imidazo[1,5-a]quinox aline-8-carboxamide]	> 10000	120
CN(C(=O)c1cc2c(cn1)nc(N)c1cncn12)[C@@H]1CCc2cc(C(F)(F)F)ncc21 [Example 24, (R)-4-amino-N-methy 1-N-(3-(trifluoromethy 1)-6,7-dihydro-5H-cyclopenta[c]pyridin-7-yl)imidazo[1,5-a]pyrido [3,4-e]pyrazine-8-carb oxamide]	> 10000	148
CN(C(=O)c1cc2c(cc1Cl)nc(N)c1cncn12)[C@@H]1COc2cc(C(F)(F)F)ccc21 [Example 27, (S)-4-amino-7-chloro-N-methyl-N-(6-(trifluoromethyl)-2,3-dihydrobenzofuran-3-yl)imi dazo[1,5-a]quinoxaline-8-carboxamide]	842	4.4
CN(C(=O)c1ccc2nc(N)c3cncn3c2c1)[C@@H]1COc2cc(S(C)(=O)=O)ccc21 [Example 28, (S)-4-amino-N-methy 1-N-(6-(methylsulfony 1)-2,3-dihydrobenzofuran-3-yl)imidazo[1,5-a]quinoxaline-8-carbo xamide]	> 10000	321
C[C@H]1OC[C@@H](N(C)C(=O)c2ccc3nc(N)c4cncn4c3c2)c2cnc(C(F)(F)F)cc21 [Example 32, 4-amino-N-methyl-N-((1R,4S)-1-methyl-7-(trifluoromethyl)-3,4-dihydro-1H-pyrano[4,3-c]pyridin-4-yl)imidazo[1,5-a]quinoxaline-8-carboxamide]	1410	25.7
CN(C(=O)c1ccc2nc(N)c3nncn3c2c1)[C@@H]1COc2cc(C(F)(F)F)ccc21 [Example 48, (S)-4-amino-N-methy 1-N-(6-(trifluoromethy 1)-2,3-dihydrobenzofuran-3-yl)-[1,2,4]triazo lo[4,3-a]quinoxaline-8-carboxamide]	> 3000	> 3000
CN(C(=O)c1ccc2nc(N)n3cncc3c2c1)[C@@H]1COc2cc(C(F)(F)F)ccc21 [Example 49, (S)-5-amino-N-methy 1-N-(6-(trifluoromethy 1)-2,3-dihydrobenzofuran-3-yl)imidazo[1,5-c]quinazoline-9-carbo xamide]	> 10000	589
CC1OC[C@@H](N(C)C(=O)c2cc3c(cn2)nc(N)c2cncn23)c2ccc(C(F)(F)F)cc21 (stereo partly drawn) [Example 50, 4-amino-N-methyl-N-((4S)-1-methyl-7-(trifluoromethyl)isochroman-4-yl)imidazo[1,5-a]pyrido[3,4-e]pyrazine-8-carboxamide]	196	4.2
CN(C(=O)c1ccc2nc(N)c3nnnn3c2c1)[C@@H]1COc2cc(C(F)(F)F)ccc21 [Example 58, (S)-4-amino-N-methyl-N-(6-(trifluoromethyl)-2,3-dihydrobenzofuran-3-yl)tetrazolo[1,5-a]quinoxaline-8-carboxamide]	> 10000	> 3000
Nc1nc2cc(F)c(C(=O)N(C3CC3)C3CCOc4cc(-c5cncc(C(F)(F)F)c5)cnc43)cc2n2cncc12 (centres unmarked) [Example 59, 4-amino-N-cyclopropyl-7-fluoro-N-(7-(5-(trifluoromethyl)pyridin-3-yl)-3,4-dihydro-2H-pyrano[3,2-b]pyridin-4-yl)imidazo [1,5-a]quinoxaline-8-carboxamide]	> 10000	711

More lines, now with the values ahead:

IC50 [1] [nM]	IC50 [2] [nM]	SMILES
> 10000	177	CN(C(=O)c1ccc2nc(N)c3cncn3c2c1)[C@@H]1CCOc2cc(C(F)(F)F)ccc21 [Example 25, (R)-4-amino-N-methy 1-N-(7-(trifluoromethy 1)chroman-4-yl)imida zo[1,5-a]quinoxaline-8-carboxamide]
> 10000	67.7	CN(C(=O)c1ccc2nc(N)c3cncn3c2c1)[C@@H]1COc2cc(C(F)(F)F)ncc21 [Example 26, (S)-4-amino-N-methy 1-N-(6-(trifluoromethy 1)-2,3-dihydrofuro[3,2-c]pyridin-3-yl)imidaz o[1,5-a]quinoxaline-8-carboxamide]
> 10000	2090	CN(C(=O)c1ccc2nc(N)c3cncn3c2n1)[C@@H]1COc2cc(C(F)(F)F)ccc21 [Example 30, (S)-6-amino-N-methy 1-N-(6-(trifluoromethy 1)-2,3-dihydrobenzofuran-3-yl)imidazo[1,5-a]pyrido[3,2-e]pyrazine-2-carboxamide]
> 10000	297	CN(C(=O)c1cc2c(cn1)nc(N)c1cncn12)[C@@H]1COc2cc(C(F)(F)F)ncc21 [Example 31, (S)-4-amino-N-methy 1-N-(6-(trifluoromethy 1)-2,3-dihydrofuro[3,2-c]pyridin-3-yl)imidaz o[1,5-a]pyrido[3,4-e]p yrazine-8-carboxamide]
> 10000	> 3000	Cc1cc(C(=O)N(C)[C@@H]2COc3cc(C(F)(F)F)ccc32)cc2c1nc(N)c1cncn12 [Example 37, (S)-4-amino-N,6-dime thyl-N-(6-(trifluoromethyl)-2,3-dihydrobenzofuran-3-yl)imidazo[1 ,5-a]quinoxaline-8-car boxamide]
5460	660	CN(C(=O)c1ccc2nc(N)c3cc(F)cn3c2c1)[C@@H]1COc2cc(C(F)(F)F)ccc21 [Example 42, (S)-4-amino-2-fluoro-N-methyl-N-(6-(trifluoromethyl)-2,3-dihydrobenzofuran-3-yl)pyrr olo[1,2-a]quinoxaline-8-carboxamide]
> 10000	52.2	CN(C(=O)c1cc2c(cc1F)nc(N)c1cncn12)[C@@H]1COc2cc(-c3cscn3)ccc21 [Example 46, (S)-4-amino-7-fluoro-N-methyl-N-(6-(thiazol-4-yl)-2,3-dihydrobenzofuran-3-yl)imidaz o[1,5-a]quinoxaline-8-carboxamide]
5860	213	CN(C(=O)c1ccc2nc(N)c3cncn3c2c1)[C@H]1COc2cc(C(F)(F)F)ccc21 [Example 51, (R)-4-amino-N-methy 1-N-(6-(trifluoromethy 1)-2,3-dihydrobenzofuran-3-yl)imidazo[1,5-a]quinoxaline-8-carbo xamide]
> 10000	123	CN(C(=O)c1ccc2nc(N)c3cncn3c2c1)[C@@H]1COc2cc(CF)ccc21 [Example 52, (S)-4-amino-N-(6-(fluoromethyl)-2,3-dihydrobenzofuran-3-yl)-N-methylimidazo[1,5-a] quinoxaline-8-carbox amide]
> 10000	> 3000	CN(C(=O)c1ccc2nc(N)c3cncn3c2c1)[C@@H]1COc2cc(C(N)=O)ccc21 [Example 53, (S)4-amino-N-(6-carbamoyl-2,3-dihydrobenzofuran-3-yl)-N-met hylimidazo[1,5-a]quin oxaline-8-carboxamide]
> 10000	2500	CN(C(=O)c1ccc2nc(N)c3cncn3c2c1)[C@@H]1COc2cc(N)ccc21 [Example 54, (S)-4-amino-N-(6-amino-2,3-dihydrobenzof uran-3-yl)-N-methyli midazo[1,5-a]quinoxa line-8-carboxamide]
1870	10.5	CN(C(=O)c1cc2c(cc1F)nc(N)c1cncn12)[C@@H]1COc2cc(OC(F)(F)F)ccc21 [Example 57, (S)-4-amino-7-fluoro-N-methyl-N-(6-(trifluoromethoxy)-2,3-dihydrobenzofuran-3-yl)i midazo[1,5-a]quinoxa line-8-carboxamide]
7070	66.8	CN(C(=O)c1cc2c(cc1F)nc(N)c1cncn12)[C@@H]1CCOc2cc(C(F)(F)F)ccc21 [Example 60, (R)-4-amino-7-fluoro-N-methyl-N-(7-(trifluoromethyl)chroman-4-yl)imidazo[1,5-a]qui noxaline-8-carboxamide]
882	7.7	CC1OC[C@@H](N(C)C(=O)c2cc3c(cc2Cl)nc(N)c2cncn23)c2ccc(F)cc21 (stereo partly drawn) [Example 61, 4-amino-7-chloro-N-( (4S)-7-fluoro-1-methylisochroman-4-yl)-N-methylimidazo[1,5-a] quinoxaline-8-carbox amide]
